This note sets out measurements from US6864219B2, “Substituted aryl ketones” (Bayer Aktiengesellschaft, priority 2000, dated 2005).

Data set [1] is described as follows: log P determination by HPLC on reversed-phase column (C 18), EEC Directive 79/831 V.A8. In kind it is physicochemical. The conditions noted are these: for logP (Physical data, Table 1): labelled a): acidic range, 0.1% aqueous phosphoric acid/acetonitrile gradient, 43° C.; for chromatographic logP: reversed-phase HPLC column (C 18), mobile-phase label not given, read-out: Log P (preparation examples). As for the experimental part:
The log P values given in Table 1 were determined in accordance with EEC Directive 79/831 V.A8 by HPLC (High Performance Liquid Chromatography) on a reversed-phase column (C 18). Temperature: 43° C.
(a) Mobile phases for the determination in the acidic range: 0.1% aqueous phosphoric acid, acetonitrile; linear gradient of 10% acetonitrile to 90% acetonitrile—the corresponding data in Table 1 are labelled ^a).
(b) Mobile phases for the determination in the neutral range: 0.01 molar aqueous phosphate buffer solution, acetonitrile, linear gradient from 10% acetonitrile to 90% acetonitrile—the corresponding data in Table 1 are labelled ^b).

Data set [2] deals with weeds. Description: Pre-emergence test (Example A), activity against weeds. In kind it is in vivo. The conditions noted are these: soil sprayed 24 hours after sowing; damage rated after three weeks. On the procedure: (§1) To produce a suitable preparation of active compound, 1 part by weight of active compound is mixed with the stated amount of solvent, the stated amount of emulsifier is added and the concentrate is diluted with water to the desired concentration.
Seeds of the test plants are sown in normal soil. After 24 hours, the soil is sprayed with the preparation of active compound such that the particular amount of active compound desired is applied per unit area. The concentration of active compound in the spray liquor is chosen such that the particular amount of active compound desired is applied in 1000 liters of water per hectare.
After three weeks, the degree of damage to the plants is rated in % damage in comparison to the development of the untreated control. The figures denote: • 0%=no effect (like untreated control) • 100%=total destruction

For data set [3], the system named is weeds. Description: Post-emergence test (Example B), activity against weeds. In kind it is in vivo. The note with it: test plants 5-15 cm sprayed; damage rated after three weeks. On the procedure:
as §1
Test plants with a height of 5-15 cm are sprayed with the preparation of active compound such that the particular amounts of active compound desired are applied per unit area. The concentration of the spray liquor is chosen so that the particular amounts of active compound desired are applied in 1000 l of water/ha.
After three weeks, the degree of damage to the plants is rated in % damage in comparison to the development of the untreated control.
The figures denote: • 0%=no effect (like untreated control) • 100%=total destruction

With `CCn1ncc(C(=O)c2ccc(SC)c(OCCn3nc(C)n(C)c3=O)c2Cl)c1O` [Example 9], the “logP (Physical data, Table 1)” value in data set [1] is recorded as “logP = 1.58^a)”. In addition, the “activity against weeds, pre-emergence” value in data set [2] is “strong activity”. Further, in data set [3], the “activity against weeds, post-emergence” value is “strong activity”.

On to `Cc1nn(CCOc2c(Cl)ccc(C(=O)C3=C(O)CCCC3=O)c2Cl)c(=O)n1C` [Example 4], for which the “logP (Physical data, Table 1)” value in data set [1] was “logP = 1.92^a)”. Besides, the “activity against weeds, pre-emergence” value in data set [2] is given as “strong activity”. In addition, the “activity against weeds, post-emergence” value in data set [3] was “strong activity”.

Turning to `Cc1nn(CCOc2c(S(C)(=O)=O)ccc(C(=O)C3=C(O)CCCC3=O)c2Cl)c(=O)n1C` [Example 11], the “logP (Physical data, Table 1)” value in data set [1] is given as “logP = 1.65^a)”. Also, the “activity against weeds, pre-emergence” value in data set [2] is “strong activity”. Besides, in data set [3], the “activity against weeds, post-emergence” value was “strong activity”.

Consider `CSc1nn(COc2c(Cl)ccc(C(=O)C3=C(O)CCCC3=O)c2Cl)c(=O)n1C` [Example 13], for which the “logP (Physical data, Table 1)” value in data set [1] was “logP = 2.44^a)”. In data set [3], the “activity against weeds, post-emergence” value is reported as “strong activity”.

Consider `O=C1CCCC(O)=C1C(=O)c1ccc(Cl)c(OCn2ccccc2=O)c1Cl` [Example 3], for which the “logP (Physical data, Table 1)” value in data set [1] is “logP = 2.04^a)”. Further, the “activity against weeds, pre-emergence” value in data set [2] was “strong activity”. In addition, the “activity against weeds, post-emergence” value in data set [3] is “strong activity”.

Take `CSc1ccc(C(=O)C2=C(O)CCCC2=O)c(Cl)c1OCCn1nc(C)n(C)c1=O` [Example 8]: in data set [1], the “logP (Physical data, Table 1)” value was “logP = 1.94^a)”. In data set [2], the “activity against weeds, pre-emergence” value was “strong activity”. Also, the “activity against weeds, post-emergence” value in data set [3] is given as “strong activity”.

On to `CCn1ncc(C(=O)c2ccc(Cl)c(OC[C@@H]3CCC(=O)N3C)c2Cl)c1O` [Example 40], for which the “logP (Physical data, Table 1)” value in data set [1] was “(S enantiomer) logP = 1.67^a)”.

As to `O=C1CC[C@@H](COc2c(Cl)ccc(C(=O)C3=C(O)CCCC3=O)c2Cl)N1` [Example 47], in data set [1], the “logP (Physical data, Table 1)” value was “(S enantiomer) logP = 1.95^a)”.

With `CCn1ncc(C(=O)c2ccc(Cl)c(OCCn3nc(C)n(C)c3=O)c2Cl)c1O` [Example 5], in data set [1], the “logP (Physical data, Table 1)” value is recorded as “logP = 1.52^a)”. Further, the “activity against weeds, pre-emergence” value in data set [2] is listed as “strong activity”. For the same molecule, in data set [3], the “activity against weeds, post-emergence” value is recorded as “strong activity”.

As for `CCOc1nn(COc2c(Cl)ccc(C(=O)C3C(=O)CCCC3=O)c2Cl)c(=O)n1C` [Example 2, 2-[3-(3′-ethoxy-4′-methyl-1′,2′,4′-1H-triazolin-5′-on-1′-yl)-methoxy-2,4-dichloro-benzoyl]-1,3-cyclohexanedione], in data set [1], the chromatographic logP stood at 2.52. The “activity against weeds, pre-emergence” value in data set [2] is recorded as “strong activity”. Besides, the “activity against weeds, post-emergence” value in data set [3] is listed as “strong activity”.

`CSc1ccc(C(=O)C2=C(O)CCCC2=O)c(C)c1OCCn1nc(C)n(C)c1=O` [Example 10]: the “logP (Physical data, Table 1)” value in data set [1] was “logP = 1.91^a)”. In data set [2], the “activity against weeds, pre-emergence” value is “strong activity”. The “activity against weeds, post-emergence” value in data set [3] is “strong activity”.

For the molecule `CCOC(=O)c1ccc(Cl)c(OCn2nc(OCC)n(C)c2=O)c1Cl` [II-6, ethyl 3-(3′-ethoxy-4′-methyl-1′,2′,4′-1H-triazolin-5′-on-1′-yl)-methoxy-2,4-dichloro-benzoate], in data set [1], the chromatographic logP worked out at 2.77.

With `CCn1ncc(C(=O)c2ccc(Cl)c(OCCn3nc(COC)n(C)c3=O)c2Cl)c1O` [Example 18], in data set [1], the “logP (Physical data, Table 1)” value is “logP = 1.62^a)”.

On to `CCOc1nn(COc2c(Cl)ccc(C(=O)O)c2Cl)c(=O)n1C` [II-8, 3-(3′-ethoxy-4′-methyl-1′,2′,4′-1H-triazolin-5′-on-1′-yl)-methoxy-2,4-dichloro-benzoic acid], for which, in data set [1], the chromatographic logP was found to be 1.74.

Take `Cc1c(C(=O)C2=C(O)CCCC2=O)ccc(Cl)c1OC[C@@H]1CCC(=O)N1C` [Example 38]: the “logP (Physical data, Table 1)” value in data set [1] was “(S enantiomer) logP = 2.10^a)”.

On to `Cc1c(C(=O)C2=C(O)CCCC2=O)ccc(Cl)c1OCCn1nc(C)n(C)c1=O` [Example 6], for which, in data set [1], the “logP (Physical data, Table 1)” value was “logP = 1.93^a)”. In data set [2], the “activity against weeds, pre-emergence” value is on record as “strong activity”. In data set [3], the “activity against weeds, post-emergence” value is given as “strong activity”.

In the case of `CCn1ncc(C(=O)c2ccc(S(C)(=O)=O)c(OCCn3nc(C)n(C)c3=O)c2C)c1O` [Example 1, 4-{3-[2-(3′,4′-dimethyl-1′,2′,4′-1H-triazolin-5′-on-1′-yl)-ethyloxy]-2-methyl-4-methylsulphonyl-benzoyl}-1-ethyl-5-hydroxy-1H-pyrazole], in data set [1], the chromatographic logP stood at 1.23. In addition, the “activity against weeds, pre-emergence” value in data set [2] is recorded as “strong activity”. Also, the “activity against weeds, post-emergence” value in data set [3] was “strong activity”.

Take `CCn1ncc(C(=O)c2ccc(Cl)c(OCCn3nc(C)n(C)c3=O)c2C)c1O` [Example 7]: the “logP (Physical data, Table 1)” value in data set [1] is recorded as “logP = 1.68^a)”. The “activity against weeds, pre-emergence” value in data set [2] is given as “strong activity”. Moreover, in data set [3], the “activity against weeds, post-emergence” value was “strong activity”.
